Where “and” joins values, the source holds several entries; their conditions need not be identical. Identical values can stand only once. Like-named read-outs stand apart in the source and are kept apart here.

In data set [1] the target is σ1R (Rattus norvegicus, UniProt Q9R0C9). The data set can be described thus: biochemical. Type of data set: binding. The note with it: for inhibition at 10 µM: read-out: σ1R Inhibition; for inhibition at 1 µM: read-out: σ1R inhibitory rate at 1 μmol/L.
The subject of data set [2] is σ1R. Type of data set: binding, rat. To be noted: Ki without DPH / Ki with DPH 250 μmol/L.
Data set [3] concerns the target σ1R. The note with it: read-out: σ1R Ki (clinical σ1R agonists); cited from earlier work.
A further data set concerns the target dopamine D3. The note with it: read-out: dopamine D3 Ki; cited from earlier work.
The test system of data set [4] is σ1R. The note with it: healthy volunteers and Huntington disease patients; cited from earlier work.
For a further data set, the system named is D2/D3 receptor. To be noted: healthy volunteers and Huntington disease patients; cited from earlier work.
The next data set addresses T1, σ2R (Rattus norvegicus, UniProt Q5U3Y7).
T1 sequence (Q5U3Y7 1-176): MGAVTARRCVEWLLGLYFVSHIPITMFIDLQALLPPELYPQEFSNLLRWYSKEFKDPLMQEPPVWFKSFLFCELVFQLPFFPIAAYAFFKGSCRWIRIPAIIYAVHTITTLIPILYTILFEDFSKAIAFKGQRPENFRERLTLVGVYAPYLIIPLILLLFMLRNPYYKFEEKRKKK
The data set is described as follows: σ2R radioligand binding assay.

A further data set relates to catalepsy. The data set can be described thus: Catalepsy bar test. The format is in vivo, mice.
For the next data set, the target named is σ1R-LgBiT and BiP-SmBiT (Homo sapiens, UniProt Q99720). The data set is described as follows: NanoBiT σ1R-BiP heterodimerization assay. The format is cell-based. To be noted: 10 μmol/L.
Chain of σ1R-LgBiT and BiP-SmBiT (Q99720 whole entry): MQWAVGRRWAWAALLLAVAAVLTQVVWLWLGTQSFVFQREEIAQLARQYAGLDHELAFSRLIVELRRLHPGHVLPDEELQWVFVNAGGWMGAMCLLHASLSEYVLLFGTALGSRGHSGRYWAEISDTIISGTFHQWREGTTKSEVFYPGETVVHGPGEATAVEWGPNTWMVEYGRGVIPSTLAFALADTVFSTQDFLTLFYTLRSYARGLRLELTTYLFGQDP
The next data set has as its target T2, CYP1A2 (Homo sapiens, UniProt P05177).
T2 sequence (P05177 1-516): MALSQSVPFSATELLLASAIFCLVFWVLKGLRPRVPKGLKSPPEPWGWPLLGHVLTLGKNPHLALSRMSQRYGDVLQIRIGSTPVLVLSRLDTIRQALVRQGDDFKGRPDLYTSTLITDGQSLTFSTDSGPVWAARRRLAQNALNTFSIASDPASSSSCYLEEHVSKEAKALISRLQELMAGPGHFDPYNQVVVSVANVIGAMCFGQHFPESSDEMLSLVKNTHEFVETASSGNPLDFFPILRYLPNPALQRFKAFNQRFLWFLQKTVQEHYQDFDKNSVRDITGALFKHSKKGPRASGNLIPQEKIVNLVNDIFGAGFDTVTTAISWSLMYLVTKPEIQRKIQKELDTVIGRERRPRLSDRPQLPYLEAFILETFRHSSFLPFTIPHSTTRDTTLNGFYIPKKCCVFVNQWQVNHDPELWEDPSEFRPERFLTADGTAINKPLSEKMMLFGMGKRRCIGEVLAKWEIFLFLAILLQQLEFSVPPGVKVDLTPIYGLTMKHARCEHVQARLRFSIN
The data set is described as follows: in vitro.

Another data set addresses CYP2C19 (Homo sapiens, UniProt P33261). The data set can be described thus: CYP450 inhibition: CYP2C19. To be noted: probe S-mephenytoin (35 μmol/L).

Chain of σ1R (Rattus norvegicus, UniProt Q9R0C9) (Q9R0C9 whole entry): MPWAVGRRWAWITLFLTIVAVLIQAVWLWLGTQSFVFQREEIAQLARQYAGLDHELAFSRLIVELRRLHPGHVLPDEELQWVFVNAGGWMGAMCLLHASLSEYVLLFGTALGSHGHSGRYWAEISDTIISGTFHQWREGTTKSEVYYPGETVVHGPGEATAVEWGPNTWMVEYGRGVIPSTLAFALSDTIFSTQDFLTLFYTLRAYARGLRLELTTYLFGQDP
Chain of CYP2C19 (P33261 whole entry): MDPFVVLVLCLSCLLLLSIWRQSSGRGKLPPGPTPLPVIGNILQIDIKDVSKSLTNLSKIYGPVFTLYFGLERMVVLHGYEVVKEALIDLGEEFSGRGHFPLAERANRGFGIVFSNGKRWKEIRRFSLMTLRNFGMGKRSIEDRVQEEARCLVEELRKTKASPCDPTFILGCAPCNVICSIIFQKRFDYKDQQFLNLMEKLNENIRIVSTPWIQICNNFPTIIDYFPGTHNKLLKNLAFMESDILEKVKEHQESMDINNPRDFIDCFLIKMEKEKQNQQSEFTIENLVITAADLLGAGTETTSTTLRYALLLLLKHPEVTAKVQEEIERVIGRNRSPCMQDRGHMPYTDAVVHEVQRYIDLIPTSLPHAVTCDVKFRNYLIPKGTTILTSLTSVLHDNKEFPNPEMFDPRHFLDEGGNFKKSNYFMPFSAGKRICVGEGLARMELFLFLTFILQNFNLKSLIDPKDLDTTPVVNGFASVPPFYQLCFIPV

As for `C/C(=N\OCCN1CCOCC1)c1ccc(Br)cc1` [16r], on σ1R [1], the inhibition at 10 µM came to 106% and the inhibition at 1 µM amounted to 55.4%.

In the case of `C=CCN1CCC2(C)c3cc(O)ccc3CC1C2C` (stereo not shown) [SKF10047], at σ1R [1], the inhibition constant (Ki) came to 292 ± 6.18 nM. The “Ratios Ki/(Ki + phenytoin)” value in the data set with σ1R [2] is 7.10 and 7.10 ± 0.74.

Regarding `COc1ccc(/C(C)=N/OCCN2CCOCC2)cc1` [16q], at σ1R [1], the inhibition at 10 µM came out at 93.2% and the inhibition at 1 µM turned out to be 37.8%.

In the case of `CCCN1CCC(c2cccc(S(C)(=O)=O)c2)CC1` [Pridopidine], the inhibition constant Ki was 57 nM on σ1R [3] and 1630 nM at dopamine D3. The “σ1R occupancy (PET)” value in the data set on σ1R [4] is recorded as around 90%. The “D2/D3 receptor occupancy (PET)” value in the data set on D2/D3 receptor is on record as around 3%.

`CC(C)=CCN1CC[C@]2(C)c3cc(O)ccc3C[C@H]1[C@H]2C` [(+)-Pentazocine]: the inhibition at 10 µM on σ1R [1] is 99%. Further, on σ2R, the Ki is 673 ± 27.5 nM.

Regarding `Cc1nc2n(c(=O)c1CCN1CCC(c3noc4cc(F)ccc34)CC1)CCCC2` [risperidone], the “mean catalepsy duration at peak response” value in the data set with catalepsy (3 mg/kg risperidone, 60 min post-administration) came out at 49.57 min. In addition, the cataleptic response result in the data set on catalepsy (oral, 15d 10 to 45 mg/kg, risperidone 3 mg/kg) is “catalepsy induced by 3 mg/kg risperidone was observed”.

With `FC(F)(F)c1ccc2c(c1)OCC/C2=N\OCCCN1CCCCC1` [15o], on σ1R [1], the Ki was 76.2 ± 2.92 nM and the inhibition at 10 µM worked out at 99.3%.

As to `O=C(OCCN1CCOCC1)C1(c2ccccc2)CCCCC1` [PRE084], on σ1R [1] (read-out: σ1R Ki), the inhibition constant (Ki) stood at 23.1 ± 3.17 nM. In addition, the “σ1R-LgBiT/BiP-SmBiT interaction, 10 min treatment” value at σ1R-LgBiT and BiP-SmBiT is on record as “decreased this interaction”.

Turning to `C/C(=N\OCCN1CCOCC1)c1ccccc1` [16p], at σ1R [1], the inhibition at 10 µM was 74.4% and the inhibition at 1 µM is -8.25%.

As for `C/C(=N\OCCN1CCOCC1)c1ccc(C)cc1` [16s], the inhibition at 10 µM on σ1R [1] turned out to be 66.2%.

With `CN(C)CCN(C)CCc1ccc(Cl)c(Cl)c1` [BD1047], the Ki on σ1R [1] (read-out: σ1R Ki, mean ± SEM, n = 3) was 0.87 ± 0.15 nM. The “Ratios Ki/(Ki + phenytoin)” value in the data set on σ1R [2] came to 0.63 ± 0.20.

Turning to `COCCCC/C(=N\OCCN)c1ccc(C(F)(F)F)cc1` [Fluvoxamine], the inhibition at 10 µM at σ1R [1] was 81.8%. Moreover, the inhibition at 10 μmol/L was found to be 95.7% against CYP1A2 and 95% against CYP2C19.

In the case of `COc1ccc(/C(C)=N/OCCCN2CCCCC2)cc1` [15l], at σ1R [1], the affinity corresponds to a Ki of 39.4 ± 3.4 nM and the inhibition at 10 µM was 93.2%.

The Ki is a dissociation constant, usually derived from enzyme kinetics or from competition with a known ligand.
